Laboratory results reported in US10493030B2 (priority 2015, dated 2019).

Columns and labels:
[1] = tested on: HIV-1 latency; conditions: very low concentrations (1-10 nM); in vitro; cited from earlier work
[2] = tested on: Jurkat-LAT-GFP; assay: in vitro model of HIV-1 latency, Jurkat-LAT-GFP; type: cell-based
[3] = tested on: PBMC isolated from HIV-1 patients; assay: HIV-1 latency ex vivo in PBMC isolated from HIV-1 patients; type: cell-based, human
[4] = tested on: human HIV-1 receptors CD4 and CXCR4; conditions: low concentrations; cited from earlier work
[5] = tested on: HIV-1; conditions: low concentrations; cited from earlier work
[6] = tested on: classical PKCs pathways; assay: cPKC translocation and signalling pathway activation in T cells; type: cell-based
Text: Low concentrations of Bryostatin-1 activate the cPKC-Ras-Raf-ERK pathway and synergize with an HDAC inhibitor, valproic acid (VPA), to activate the transcription factor SP1.

[7] = tested on: transcription factor SP1; assay: activation of transcription factor SP1, combination with valproic acid; type: cell-based; conditions: low concentrations; with HDAC inhibitor valproic acid
[8] = Phase I clinical study in HIV-1 patients (NCT02269605); type: in vivo, human; conditions: doses of 10 and 20 μg/m2
[9] = tested on: T cells; assay: transcriptome studies in T cells; type: cell-based; conditions: 10 and 100 nM
[10] = tested on: HIV; conditions: some HIV-infected patients; cited from earlier work
[11] = concentrations higher than 10 nM

| Structure (SMILES) | synergy with HDAC inhibitors such as valproic acid to antagonise HIV-1 latency [1] | reactivation of HIV-1 latency in T cells ([2]; Jurkat-LAT-GFP, via classical PKCs pathways) | reactivation of HIV-1 latency ([2]; lower concentrations (10 nM), ERK activation and nuclear phosphorylation of p65) | HIV-1 latency ex vivo [3] | expression of the human HIV-1 receptors CD4 and CXCR4 [4] | de novo HIV-1 infection [5] | activation of NF-κB and MAPKs (JNK and ERK) pathways [6, 11] | translocation of cPKCs [6, 11] | translocation of cPKCs and Ras-GRP1 ([6]; lower concentrations (10 nM)) | synergy with valproic acid (VPA) to activate the transcription factor SP1 [7] | adverse events [8] | gene expression in T cells, low vs. high concentrations [9] | HIV transcription from latency [10] |
| --- | --- | --- | --- | --- | --- | --- | --- | --- | --- | --- | --- | --- | --- |
| CCC/C=C/C=C/C(=O)O[C@H]1/C(=C/C(=O)OC)C[C@H]2C[C@H]([C@@H](C)O)OC(=O)C[C@H](O)C[C@@H]3C[C@H](OC(C)=O)C(C)(C)[C@](O)(C[C@@H]4C/C(=C/C(=O)OC)C[C@H](/C=C/C(C)(C)[C@]1(O)O2)O4)O3 [Bryostatin-1] | synergizes | re-activates HIV-1 latency | fully reactivates HIV-1 latency | antagonized HIV-1 latency | down-regulated | prevent de novo HIV-1 infection | activated the canonical NF-κB and MAPKs (JNK and ERK) pathways | induced translocation of cPKCs to the plasma membrane | translocated cPKCs and Ras-GRP1 to the endoplasmic reticulum | synergize | did not induced significant adverse events | differentially regulate gene expression |  |
| O=C(CCCCCCC(=O)Nc1ccccc1)NO [Vorinostat] |  |  |  |  |  |  |  |  |  |  |  |  | significant and sustained increase in HIV transcription from latency |
